Laboratory results: PMC2836797 (FEBS letters, 2010)

What was measured:
Assay type in all cases: biochemical
[1] = molecular target: ND2 subunit of NADH:ubiquinone oxidoreductase (complex I) (Bos taurus, UniProt P03892)
[2] = molecular target: ND5 subunit of NADH:ubiquinone oxidoreductase (complex I) (Bos taurus, UniProt P03920); details: read-out: -6M urea
[3] = molecular target: ND1 subunit of NADH:ubiquinone oxidoreductase (complex I) (Bos taurus, UniProt P03887); assay: photoaffinity labeling of SMP with [3H]BPA, BN-PAGE/dSDS-PAGE radioactivity

Measured: IC50

ND2 subunit of NADH:ubiquinone oxidoreductase (complex I), sequence (P03892 whole entry, one chain of several): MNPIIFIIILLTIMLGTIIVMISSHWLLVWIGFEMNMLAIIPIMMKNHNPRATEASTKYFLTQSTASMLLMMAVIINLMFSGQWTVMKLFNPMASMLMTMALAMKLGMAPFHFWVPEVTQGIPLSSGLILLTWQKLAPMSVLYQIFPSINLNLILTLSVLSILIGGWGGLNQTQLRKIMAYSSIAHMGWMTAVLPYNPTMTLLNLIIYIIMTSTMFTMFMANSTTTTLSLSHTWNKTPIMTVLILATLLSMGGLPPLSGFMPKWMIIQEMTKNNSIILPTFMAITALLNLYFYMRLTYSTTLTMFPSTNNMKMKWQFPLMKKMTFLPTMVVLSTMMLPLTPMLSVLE
ND5 subunit of NADH:ubiquinone oxidoreductase (complex I), sequence (P03920 whole entry, one chain of several): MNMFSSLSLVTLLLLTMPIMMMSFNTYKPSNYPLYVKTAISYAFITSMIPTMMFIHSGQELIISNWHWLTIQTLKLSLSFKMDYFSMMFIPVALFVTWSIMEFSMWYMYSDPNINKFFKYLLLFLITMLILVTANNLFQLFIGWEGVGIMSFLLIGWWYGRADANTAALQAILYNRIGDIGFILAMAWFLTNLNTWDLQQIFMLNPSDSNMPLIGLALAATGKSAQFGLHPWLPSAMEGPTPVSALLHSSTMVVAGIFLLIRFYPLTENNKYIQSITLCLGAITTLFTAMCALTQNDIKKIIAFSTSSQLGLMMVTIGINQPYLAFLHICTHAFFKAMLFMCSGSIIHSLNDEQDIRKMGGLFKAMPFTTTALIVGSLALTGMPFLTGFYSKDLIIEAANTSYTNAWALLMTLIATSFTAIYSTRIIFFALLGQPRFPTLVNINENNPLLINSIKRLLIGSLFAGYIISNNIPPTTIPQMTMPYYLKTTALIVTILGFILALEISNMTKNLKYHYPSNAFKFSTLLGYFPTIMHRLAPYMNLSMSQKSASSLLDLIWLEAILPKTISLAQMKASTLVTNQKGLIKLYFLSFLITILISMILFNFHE
ND1 subunit of NADH:ubiquinone oxidoreductase (complex I), sequence (P03887 whole entry, one chain of several): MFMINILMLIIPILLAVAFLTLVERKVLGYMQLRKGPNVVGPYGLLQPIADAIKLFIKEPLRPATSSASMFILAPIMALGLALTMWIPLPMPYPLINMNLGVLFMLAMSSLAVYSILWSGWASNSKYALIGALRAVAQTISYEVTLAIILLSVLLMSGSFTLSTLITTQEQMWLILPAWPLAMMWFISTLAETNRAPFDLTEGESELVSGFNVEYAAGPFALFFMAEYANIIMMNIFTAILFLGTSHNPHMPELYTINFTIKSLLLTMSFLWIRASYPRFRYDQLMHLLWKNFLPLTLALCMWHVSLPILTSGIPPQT

benzophenone-asimicin [BPA]
~1 nM: [1] | [2] | [3]
